target: T1, PDK1 (Homo sapiens, UniProt O15530); test: Test for the inhibition of PDK1 (flashplate, 33P-ATP), enzymatic; type: biochemical; settings: prior art compounds vs compounds according to the invention
T1 construct: His6 (N)
T1 sequence (O15530 51-556 limits assumed): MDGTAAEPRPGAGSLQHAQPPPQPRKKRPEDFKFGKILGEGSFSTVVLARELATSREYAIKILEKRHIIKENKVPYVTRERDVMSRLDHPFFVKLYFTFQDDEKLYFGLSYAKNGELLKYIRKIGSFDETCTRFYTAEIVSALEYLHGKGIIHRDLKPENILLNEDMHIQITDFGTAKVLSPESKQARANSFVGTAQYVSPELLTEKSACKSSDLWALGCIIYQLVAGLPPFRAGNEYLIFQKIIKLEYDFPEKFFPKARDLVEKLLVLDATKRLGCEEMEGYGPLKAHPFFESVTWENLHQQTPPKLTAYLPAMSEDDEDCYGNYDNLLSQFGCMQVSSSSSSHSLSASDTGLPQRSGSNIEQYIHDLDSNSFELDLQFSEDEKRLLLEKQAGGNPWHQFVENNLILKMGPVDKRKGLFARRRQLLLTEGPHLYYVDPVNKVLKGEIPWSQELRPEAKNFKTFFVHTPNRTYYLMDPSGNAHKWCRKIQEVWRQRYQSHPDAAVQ
Procedure: 4.0 Test for the Inhibition of PDK1
The experimental batches are carried out in a flashplate system with 384 wells/microtitration plate.
In each case, the PDK1 sample His6-PDK1(1-50)(3.4 nM), the PDK1 substrate biotin-bA-bA-[…] (400 nM), 4 μM ATP (with 0.2 μCi of ^33P-ATP/well) and the test substance in 50 μl of conventional experimental solution per well are incubated at 30° C. for 60 min. The test substances are employed in corresponding concentrations (if desired in a dilution series). The control is carried out without test substance. The reaction is stopped using standard methods and washed. The activity of the kinase is measured via the incorporated radioactivity in top count. In order to determine the non-specific kinase reaction (blank value), the experimental batches are carried out in the presence of 100 nM staurosporine.
The radioactivity (decompositions per minute) of the blank value (no use of test substance in the presence of staurosporine) is subtracted from all other radioactivity values. The controls (kinase activity without test substance) are set equal to 100 percent and all other radioactivity values (after subtracting the blank value) are expressed set in relation thereto (for example in % of the control).
IC50 values (50% inhibition) are determined with the aid of statistics programmes, such as, for example, RS1.

SMILES	inhibition of PDK1 (enzymatic), activity compared with the compounds according to the invention
c1cncc(CNc2nnc(-c3c[nH]c4ncccc34)o2)c1 [Compound 88, Pyridin-3-ylmethyl-[5-(1H-pyrrolo-[2,3-b]pyridin-3-yl)-1,3,4-oxadiazol-2-yl]amine]	lower activity
COc1cc(Nc2nnc(-c3c[nH]c4ncccc34)o2)cc(OC)c1 [Compound 89, (3,5-Dimethoxyphenyl)-[5-(1H-pyrrolo[2,3-b]pyridin-3-yl)-1,3,4-oxadiazol-2-yl]amine]	lower activity
COc1cccc(CNc2nnc(-c3c[nH]c4ncc(-c5cn[nH]c5)cc34)o2)c1 [Compound 90, (3-Methoxybenzyl)-{5-[5-(1H-pyrazol-4-yl)-1H-pyrrolo [2,3-b]pyridin-3-yl]-1,3,4-oxadiazol-2-yl}amine]	lower activity
COc1cccc(CNc2nnc(-c3c[nH]c4ncccc34)o2)c1 [Compound 95, (3-Methoxybenzyl)-[5-(1H-pyrrolo-[2,3-b]pyridin-3-yl)-1,3,4-oxadiazol-2-yl]amine]	lower activity

tested on: not given; test: not given; settings: not given

SMILES	melting point
Cn1cc(-c2cnc3[nH]cc(-c4nnc(Nc5ccccc5F)o4)c3c2)cn1 [Compound 60]	295 to 297 °C
CCOc1ccccc1Nc1nnc(-c2c[nH]c3ncc(-c4cnn(C)c4)cc23)o1 [Compound 62, (2-Ethoxyphenyl)-{5-[5-(1-methyl-1H-pyrazol-4-yl)-1H-pyrrolo[2,3-b]-pyridin-3-yl]-1,3,4-oxadiazol-2-yl}-amine]	274 to 275 °C
COc1ccccc1CNc1nnc(-c2c[nH]c3ncc(-c4cnn(C)c4)cc23)o1 [Compound 63, (2-Methoxybenzyl)-{5-[5-(1-methyl-1H-pyrazol-4-yl)-1H-pyrrolo[2,3-b]-pyridin-3-yl]-1,3,4-oxadiazol-2-yl}-amine]	253 to 254 °C
Cn1cc(-c2cnc3[nH]cc(-c4nnc(Nc5ccccc5)o4)c3c2)cn1 [Compound 75, {5-[5-(1-Methyl-1H-pyrazol-4-yl)-1H-pyrrolo[2,3-b]pyridin-3-yl]-1,3,4-oxadiazol-2-yl}phenylamine]	324 to 326 °C
Cn1cc(-c2cnc3[nH]cc(-c4nnc(NCc5ccc6c(c5)OCO6)o4)c3c2)cn1 [Compound 82, Benzo-1,3-dioxol-5-ylmethyl-{5-[5-(1-methyl-1H-pyrazol-4-yl)-1H-pyrrolo[2,3-b]pyridin-3-yl]-1,3,4-oxadiazol-2-yl}amine]	281 to 283 °C
